Like-named read-outs stand apart in the source and are kept apart here.
How the values were obtained:
Test in all cases: TGFα-shedding assay-based GPCR screening with chimeric Gα subunit proteins
Assay type in all cases: cell-based
348 GPCRs [1] = target: T1, 348 GPCRs (Homo sapiens, UniProt Q96PE1)
T1 sequence (Q96PE1 34-1338): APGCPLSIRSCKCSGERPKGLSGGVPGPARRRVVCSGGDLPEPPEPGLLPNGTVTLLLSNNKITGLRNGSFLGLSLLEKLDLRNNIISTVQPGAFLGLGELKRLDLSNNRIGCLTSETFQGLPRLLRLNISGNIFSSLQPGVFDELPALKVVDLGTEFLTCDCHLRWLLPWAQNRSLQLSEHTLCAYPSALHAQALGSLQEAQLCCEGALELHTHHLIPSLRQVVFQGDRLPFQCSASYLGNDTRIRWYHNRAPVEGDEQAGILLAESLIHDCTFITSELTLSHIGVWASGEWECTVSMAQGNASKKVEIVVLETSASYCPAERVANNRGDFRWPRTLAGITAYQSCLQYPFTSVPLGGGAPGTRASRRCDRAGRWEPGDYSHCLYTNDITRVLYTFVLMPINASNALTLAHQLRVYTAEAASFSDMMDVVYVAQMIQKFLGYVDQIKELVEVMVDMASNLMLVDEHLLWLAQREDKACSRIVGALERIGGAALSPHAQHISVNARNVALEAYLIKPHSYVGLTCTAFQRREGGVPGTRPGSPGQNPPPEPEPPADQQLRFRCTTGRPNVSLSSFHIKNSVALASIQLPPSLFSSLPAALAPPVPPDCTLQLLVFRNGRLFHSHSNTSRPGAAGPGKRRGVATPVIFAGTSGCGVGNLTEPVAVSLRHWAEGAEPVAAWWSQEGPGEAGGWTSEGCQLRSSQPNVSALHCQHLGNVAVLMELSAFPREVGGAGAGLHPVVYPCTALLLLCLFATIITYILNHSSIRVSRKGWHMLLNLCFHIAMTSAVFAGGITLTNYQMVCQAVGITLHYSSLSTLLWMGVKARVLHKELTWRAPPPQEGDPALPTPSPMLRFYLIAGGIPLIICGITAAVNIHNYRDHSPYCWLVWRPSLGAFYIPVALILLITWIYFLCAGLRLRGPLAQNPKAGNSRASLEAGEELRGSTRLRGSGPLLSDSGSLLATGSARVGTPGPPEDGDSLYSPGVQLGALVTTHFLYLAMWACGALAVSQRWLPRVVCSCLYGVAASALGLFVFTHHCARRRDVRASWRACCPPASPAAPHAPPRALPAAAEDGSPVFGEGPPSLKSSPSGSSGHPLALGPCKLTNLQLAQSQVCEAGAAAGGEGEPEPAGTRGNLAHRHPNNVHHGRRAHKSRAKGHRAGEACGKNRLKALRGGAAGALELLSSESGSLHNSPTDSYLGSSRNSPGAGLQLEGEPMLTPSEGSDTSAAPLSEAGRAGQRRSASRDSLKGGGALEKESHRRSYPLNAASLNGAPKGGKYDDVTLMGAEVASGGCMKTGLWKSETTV

348 GPCRs [2] = target: T2, 348 GPCRs (Homo sapiens, UniProt Q8TDS5); conditions: 10µM, Favipiravir 100μM
T2 construct: expressed in transfected cells; host or cells: HEK293A

348 GPCRs [3] = target: T3, 348 GPCRs (Homo sapiens, UniProt P25929); conditions: 10µM, Favipiravir 100μM
T3 construct: expressed in transfected cells; host or cells: HEK293A
T3 sequence (P25929 1-384): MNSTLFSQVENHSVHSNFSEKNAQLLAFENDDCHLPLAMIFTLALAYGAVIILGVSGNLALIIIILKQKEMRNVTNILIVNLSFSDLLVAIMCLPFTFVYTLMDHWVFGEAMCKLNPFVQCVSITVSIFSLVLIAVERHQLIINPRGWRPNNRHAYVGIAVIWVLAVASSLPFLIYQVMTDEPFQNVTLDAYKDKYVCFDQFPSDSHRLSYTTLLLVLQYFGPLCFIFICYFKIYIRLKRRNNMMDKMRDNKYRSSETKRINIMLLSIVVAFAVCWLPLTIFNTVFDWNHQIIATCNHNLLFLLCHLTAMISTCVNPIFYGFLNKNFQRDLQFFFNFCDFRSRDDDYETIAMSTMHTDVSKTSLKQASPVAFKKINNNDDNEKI

348 GPCRs [4] = target: T4, 348 GPCRs (Homo sapiens, UniProt Q7Z601); conditions: 10µM, Favipiravir 100μM
T4 construct: expressed in transfected cells; host or cells: HEK293A
T4 sequence (Q7Z601 1-462): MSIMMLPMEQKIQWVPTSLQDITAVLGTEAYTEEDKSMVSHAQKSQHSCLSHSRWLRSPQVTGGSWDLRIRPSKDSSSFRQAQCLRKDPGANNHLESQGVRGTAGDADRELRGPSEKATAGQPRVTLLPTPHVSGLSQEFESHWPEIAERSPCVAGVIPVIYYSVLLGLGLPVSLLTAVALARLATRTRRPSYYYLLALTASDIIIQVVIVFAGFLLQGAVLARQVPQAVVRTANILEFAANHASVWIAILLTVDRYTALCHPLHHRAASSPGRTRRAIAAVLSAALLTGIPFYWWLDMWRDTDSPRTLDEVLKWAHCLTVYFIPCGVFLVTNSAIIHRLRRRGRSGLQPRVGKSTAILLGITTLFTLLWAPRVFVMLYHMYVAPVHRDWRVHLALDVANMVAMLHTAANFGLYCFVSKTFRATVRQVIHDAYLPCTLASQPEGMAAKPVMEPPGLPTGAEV

348 GPCRs [5] = target: T5, 348 GPCRs (Homo sapiens, UniProt P46095)
T5 construct: expressed in transfected cells; host or cells: HEK293A

[6] = GPCR GPR124 (Adhesion G Protein-Coupled Receptor A2 (ADGRA2)), read-out: % GPCR activation compared to TPA
[7] = OXER1 (oxoeicosanoid receptor 1), read-out: % GPCR activation compared to TPA
[8] = NPY1R (neuropeptide Y receptor Y1), read-out: % GPCR activation compared to TPA
[9] = GPR142 (G protein-coupled receptor 142), read-out: % GPCR activation compared to TPA
[10] = GPCR GPR6 (G protein-coupled receptor 6), read-out: % GPCR activation compared to TPA
[11] = read-out: % GPCR activation compared to TPA, GPCR GPR124 (Adhesion G Protein-Coupled Receptor A2 (ADGRA2))
[12] = read-out: % GPCR activation compared to TPA, OXER1 (oxoeicosanoid receptor 1)
[13] = read-out: % GPCR activation compared to TPA, NPY1R (neuropeptide Y receptor Y1)
[14] = read-out: % GPCR activation compared to TPA, GPR142 (G protein-coupled receptor 142)
[15] = read-out: % GPCR activation compared to TPA, GPCR GPR6 (G protein-coupled receptor 6)

T2 sequence (Q8TDS5 whole entry): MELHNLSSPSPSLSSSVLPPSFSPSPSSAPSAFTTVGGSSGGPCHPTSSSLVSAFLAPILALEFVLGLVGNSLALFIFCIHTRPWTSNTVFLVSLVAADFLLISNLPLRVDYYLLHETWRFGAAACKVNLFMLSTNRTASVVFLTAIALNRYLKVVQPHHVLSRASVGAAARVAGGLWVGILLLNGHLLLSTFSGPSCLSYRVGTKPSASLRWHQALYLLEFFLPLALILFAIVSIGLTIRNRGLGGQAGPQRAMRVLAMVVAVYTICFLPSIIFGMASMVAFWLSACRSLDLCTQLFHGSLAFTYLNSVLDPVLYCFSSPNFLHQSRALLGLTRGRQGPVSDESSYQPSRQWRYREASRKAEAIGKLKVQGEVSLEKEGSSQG
T5 sequence (P46095 whole entry): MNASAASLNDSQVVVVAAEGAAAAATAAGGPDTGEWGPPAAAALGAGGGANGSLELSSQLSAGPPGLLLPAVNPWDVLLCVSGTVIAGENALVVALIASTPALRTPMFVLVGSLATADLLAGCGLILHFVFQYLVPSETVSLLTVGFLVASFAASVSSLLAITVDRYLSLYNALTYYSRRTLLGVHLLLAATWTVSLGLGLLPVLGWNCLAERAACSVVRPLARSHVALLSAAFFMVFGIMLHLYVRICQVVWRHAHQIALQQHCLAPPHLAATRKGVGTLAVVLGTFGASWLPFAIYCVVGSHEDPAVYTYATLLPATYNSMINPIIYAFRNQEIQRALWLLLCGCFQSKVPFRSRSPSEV

activation at 10 µM (348 GPCRs [1]; [6])	activation at 10 µM (348 GPCRs [2]; [7])	activation at 100 µM (348 GPCRs [3]; [8])	activation at 100 µM (348 GPCRs [4]; [9])	activation at 10 µM (348 GPCRs [5]; [10])	activation at 100 µM (348 GPCRs [1]; GPCR GPR124 (Adhesion G Protein-Coupled Receptor A2 (ADGRA2)), 100μM, read-out: % GPCR activation compared to TPA)	activation at 100 µM (348 GPCRs [5]; GPCR GPR6 (G protein-coupled receptor 6), 100μM, read-out: % GPCR activation compared to TPA)	SMILES	activation at 10 µM (348 GPCRs [1]; [11])	activation at 10 µM (348 GPCRs [2]; [12])	activation at 100 µM (348 GPCRs [3]; [13])	activation at 100 µM (348 GPCRs [4]; [14])	activation at 10 µM (348 GPCRs [5]; [15])
0.29%	-0.233%	-0.88%	0.3%	5.11%			N#C[C@@]1(c2ccc3c(N)ncnn23)O[C@H](CO)[C@@H](O)[C@H]1O [GS441524]					
	0.649%	-1.15%	-0.257%		-1.17%	1.83%	NC(=O)c1nc(F)cnc1O [favipiravir, 6-fluoro-3-hydroxy-2-pyrazinecarboxamide]					
-0.928%	-0.119%	-1.55%	2.63%	-0.366%			CC(C)C(=O)OC[C@H]1O[C@@H](n2ccc(NO)nc2=O)[C@H](O)[C@@H]1O [molnupiravir]					
							CCC(CC)COC(=O)[C@H](C)N[P@](=O)(OC[C@H]1O[C@@](C#N)(c2ccc3c(N)ncnn23)[C@H](O)[C@@H]1O)Oc1ccccc1 [remdesivir]	-0.926%	2.06%	0.0788%	1.22%	7.41%
							CC(C)OC(=O)[C@H](C)N[P@](=O)(OC[C@H]1O[C@@H](n2ccc(=O)[nH]c2=O)[C@](C)(F)[C@@H]1O)Oc1ccccc1 [sofosbuvir]	1.09%	-1.86%	-0.539%	3.77%	-0.69%
